Measurements from ChEMBL document CHEMBL3259546, “Chrotacumines G-J, chromone alkaloids from Dysoxylum acutangulum with osteoclast differentiation inhibitory activity” (Bioorg Med Chem Lett, 2014).

What was measured:
Osteoclast = experiment: Inhibition of RANKL-induced osteoclast differentiation in ICR mouse bone marrow after 48 hrs by TRAP assay; format: functional, cell-based
[1] = Cytotoxicity against ICR mouse osteoclasts by MTT assay; format: cell-based; conditions: osteoclast

SMILES	IC50 (Osteoclast) [µM]	inhibition (Osteoclast)	Activity [1]
COc1cc(/C=C/C(=O)O[C@@H]2CN(C)CC[C@@H]2c2c(O)cc(O)c3c(=O)cc(C)oc23)cc(OC)c1OC	9.8	Dose-dependent effect	Non-toxic
COc1cc(C(=O)O[C@@H]2CN(C)CC[C@@H]2c2c(O)cc(O)c3c(=O)cc(C)oc23)ccc1O	15.1	Dose-dependent effect	Non-toxic
